Measurements from patent US11510407B2, “Compositions and methods for reducing ice crystal formation” (X-THERMA, INC., priority 2015, dated 2022).
“Also recorded” adds a separate entry of the source.

How the values were obtained:
[1] = Crystallographic x-ray diffraction (XRD) ice crystal formation assay; format: physicochemical; conditions: for reduction of necessary EG concentration while preventing ice formation (ice ring scores, FIG. 3D): 1 and 5 mg/mL compound, EG 15% to 30% (v/v)
Procedure: In order to increase the throughput of library analysis, a crystallographic x-ray diffraction (XRD) technique was used to evaluate ice crystal formation. For these experiments, the compounds named “Compound 2,” “Compound 8,” “Compound 10,” “Compound 11,” “Compound 12,” “Compound 13,” and “Compound 58” were tested. Compound 58 is similar to Compound 12, except that an arginine amino acid has been appended to the N-terminal end.
For these experiments, EG concentrations between 15% and 30% (v/v) were used. Typically, EG, DMSO, and other cryoprotectants are used during XRD sample analysis at concentrations of 35-40% (v/v) to vitrify solutions and avoid diffraction interference from ice crystals. Concentrations of 1 and 5 mg/mL of the peptoid and peptoid-peptide compounds were used. […] FIG. 3D provides ice rings scores for a variety of EG concentrations and two concentrations of Compounds 2, 8, and 12.
“IceRing1” and “IceRing2” refer to ice formation scores, which range between 0 (no ice formation) and 15 (large ice formation).
The sample containing Compound 12 at a concentration of 5 mg/mL (0.5% (w/v)) and EG at a concentration of 17.5% (v/v) in water was ice-free after flash freezing. […] In the figures, black spots and rings represent ice crystals.

[2] = Larger volume flash freeze / rewarm / −20° C. storage assay; format: physicochemical
Procedure: In order to test the usefulness of compositions of the present invention at larger scales, experiments were performed using solution volumes that are similar to volumes used for standard egg and stem cell preservation. For these experiments, two samples, one containing 22.5% EG and buffer only, and another containing 22.5% EG and 5 mg/ml (0.5% w/v) of Compound 12 and buffer, were flash frozen in liquid nitrogen. […] The rewarming of the solutions in a 37° C. water bath led to an unexpected and beneficial result. The Compound 12 solution bypassed devitrification in less than 2 seconds upon rewarming (FIG. 6B, right), whereas chunks of ice were seen floating in the control sample (FIG. 6B, left) after 20 seconds. Condensation was seen on each of the tubes because the tubes were actually still much below room temperature.

HEK 293 cell line = assay: Cytotoxicity assay (MTT); format: cell-based, human
Procedure: A Tecan Genesis Robotic Workstation was used to prepare solutions in 96- and 384-well plates. Solutions contained culture media, buffers, a cryoprotectant composition of the present invention (Compound 12) or DMSO. Solutions were adjusted to the desired pH. Serial dilutions were performed to obtain solutions containing various concentrations of Compound 12 and DMSO. Control experiments were performed using only culture media.
For these experiments, cells were seeded at low density (i.e., 10% confluence), exposed to solutions containing Compound 12 or DMSO, and placed in a 37° C. incubator. The cells were allowed to grow until control cells that were treated only with empty vehicle approached 70% confluence (typically about 3 to 5 days). Assessment for compound cytotoxicity was via MTT assay.

HEK 293 cells = assay: Cryopreservation assay (flash freeze-thaw, Calcein AM viability); format: cell-based, human
Procedure: Initial cryopreservation assays were performed using very simple solutions, with and without the addition of Compound 12, in order to minimize confounding outside factors. For this first set of experiments, two sample solutions were prepared. The first sample solution contained simple buffer and ethylene glycol (EG) at a concentration of 22.5% (v/v), and the second sample solution contained simple buffer, EG (22.5% (v/v)), and 5 mg/mL (0.5% (w/v)) of Compound 12.
HEK 293 cells were grown until 70% confluent, then treated with trypsin to remove adhesion proteins and yield free floating cells. Cells were counted using a hemocytometer and sample cell concentrations were adjusted to final concentrations of 10,000 cells per microliter. Cells were then compressed into tight pellets by centrifugation, and each sample was subsequently mixed with 20 μL of one of the sample solutions. Samples were then flash frozen by immersion in liquid nitrogen, followed by rewarming in a 37° C. water bath. After the freeze-thaw process, cells were suspended in a 400× volume of culture media for recovery. The positive control sample was treated with culture media at 37° C. and not subjected to the freeze-thaw process. The negative control sample was treated with culture media only during the freeze-thaw process. After recovery, cells were stained with Calcein AM for 30 minutes and cell viability was measured using a fluorescence plate reader.
A second set of experiments was performed to evaluate the cryopreservation potential of a formulation that contained 5 mg/mL of Compound 12 plus a mixture of glycols, disaccharides, and a general buffer. Post-thaw survival following vitrification in liquid nitrogen was evaluated as described above.

[3] = 160 mM ethylene glycol in MilliQ water, slow cooled, −20° C., one hour
Procedure: In this experiment, four water-based samples were prepared in capillary tubes containing MilliQ purified water. One sample contained only water, and another sample contained 160 mM ethylene glycol (EG). The other two samples each contained a peptoid polymer at 9 mM. One of the peptoid polymer samples contained the peptoid polymer called “Compound 1,” while the other sample contained the peptoid polymer called “Compound 10.” The sequences of the peptoid polymers are as follows:
After sample preparation, all samples were slow cooled and incubated at −20° C. on a Peltier cooled plate. After one hour, samples were removed and immediately photographed using a digital camera attached to a 180× Stereo Zoom microscope (FIG. 2A).

[4] = buffer + EG 22.5% (v/v) + 5 mg/mL Compound 12 with HEK 293 cells

## CCC(C)NCC(=O)N(CC(=O)N(CC(=O)N(CC(=O)N(CC(=O)N(CC(=O)N(CC(=O)N(CC(=O)N(CC(=O)N(CC(N)=O)C(C)CC)C(C)CC)CC(C)O)CC(C)O)C(C)CC)C(C)CC)CC(C)O)CC(C)O)C(C)CC (stereo not drawn) [Compound 12, Nsb-Nsb-Nhp-Nhp-Nsb-Nsb-Nhp-Nhp-Nsb-Nsb]
[1]
  reduction of necessary EG concentration while preventing ice formation (ice ring scores, FIG. 3D): significantly reduced necessary EG concentrations while preventing ice formation
[1]; Compound 12 5 mg/mL (0.5% (w/v)) + EG 17.5% (v/v) in water, stream of liquid nitrogen vapor
  ice formation after flash freezing (XRD, FIG. 3A): complete vitrification; also recorded: ice-free; also recorded: completely eliminate all ice formation
[1]; Compound 12 5 mg/mL + EG 17.5% (v/v)
  anti-icing effect in comparison to EG at the same molar concentration: 500 times
[2]; 22.5% EG + 5 mg/ml (0.5% w/v) Compound 12 + buffer, −196° C.
  vitrification / ice formation on flash freezing in liquid nitrogen: complete vitrification with no ice formation; also recorded: able to vitrify; also recorded: vitrified
[2]; 22.5% EG + 5 mg/ml Compound 12, 37° C. water bath
  time to bypass devitrification upon rewarming: less than 2 seconds
[2]; 22.5% EG + 5 mg/ml Compound 12, 100 μL samples
  state after overnight in −20° C. freezer: completely unfrozen; also recorded: remained unfrozen
[2]; 22.5% EG + 5 mg/ml Compound 12, rewarming at 37° C.
  behaviour during rewarming / thawing: active de-icer during thawing; also recorded: unfroze (within two seconds)
HEK 293 cell line; HEK 293, at 0.5% w/v
  toxicity (MTT assay): did not show toxicity
HEK 293 cell line; HEK 293, at concentrations four times greater than 0.5% w/v
  toxicity (MTT assay): did not show significant toxicity
HEK 293 cell line; HEK 293, serial dilutions, 37° C., about 3 to 5 days
  toxicity compared with culture media alone (MTT assay): did not significantly deviate from the that of culture media alone
HEK 293 cells; HEK 293, buffer + EG 22.5% (v/v) + 5 mg/mL Compound 12, liquid nitrogen, viability 12 hours post-thaw
  cell survival after freeze-thaw versus EG alone (FIG. 8): greatly improved cell survival
HEK 293 cells; HEK 293, formulation containing 5 mg/mL Compound 12
  cryopreservation compared to VS2E and M22: superior cryopreservation
HEK 293 cells; HEK 293, formulation with 5 mg/mL Compound 12 plus mixture of glycols, disaccharides, general buffer, vitrified in liquid nitrogen, 16 hours post-thaw
  post-thaw survival of the cells: 98%
HEK 293 cells; [4]
  devitrification on rewarming compared to sample lacking Compound 12: bypassed much more rapidly
  vitrification during the freezing process: complete vitrification without ice formation

## CCC(C)NCC(=O)N(CC(=O)N(CC(=O)N(CC(=O)N(CC(=O)N(CC(=O)N(CC(=O)N(CC(=O)N(CC(=O)N(CC(N)=O)CC(C)O)CC(C)O)CC(C)O)C(C)CC)CC(C)O)CC(C)O)CC(C)O)CC(C)O)CC(C)O (stereo not drawn) [Compound 8, Nsb-Nhp-Nhp-Nhp-Nhp-Nhp-Nsb-Nhp-Nhp-Nhp]
[1]
  reduction of necessary EG concentration while preventing ice formation (ice ring scores, FIG. 3D): significantly reduced necessary EG concentrations while preventing ice formation

## OCCO [EG, ethylene glycol, reference compound]
[3]
  ice crystal formation: significant ice crystal formation
[1]; 30% (v/v) EG alone
  ice formation after flash freezing (XRD, FIG. 3B): partial vitrification with the presence of cubic ice

## C[S+](C)[O-] [DMSO, dimethyl sulfoxide, reference compound]
HEK 293 cell line; HEK 293, MTT assay
  concentration above which warm survival for an extended period of time was not allowed: above 0.5 % (v/v)

## CCC(C)NCC(=O)N(CC(=O)N(CC(=O)N(CC(=O)N(CC(=O)N(CC(=O)N(CC(=O)N(CC(=O)N(CC(=O)N(CC(N)=O)CC(C)O)C(C)CC)C(C)CC)C(C)CC)CC(C)O)CC(C)O)CC(C)O)C(C)CC)C(C)CC (stereo not drawn) [Compound 2, Nsb-Nsb-Nsb-Nhp-Nhp-Nhp-Nsb-Nsb-Nsb-Nhp]
[1]
  reduction of necessary EG concentration while preventing ice formation (ice ring scores, FIG. 3D): significantly reduced necessary EG concentrations while preventing ice formation
